Reference: US20240182460A1, “ALLOSTERIC CHROMENONE INHIBITORS OF PHOSPHOINOSITIDE 3-KINASE (PI3K) FOR THE TREATMENT OF DISEASE” (PETRA PHARMA CORPORATION, priority 2022, published 2024)
Where two headings read alike, the source gives them in different places.

Key:
PI3Kα E545K [1] = molecular target: T1, PI3Kα E545K (Homo sapiens, UniProt P42336, E545K); experiment: PI3Kα E545K mutant in vitro cell based assay, MCF-7 cells; details: MCF-7 cell line, 0% FBS, 3 hours treatment
Procedure, shortened: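 MCF-7 cells (PI3Kα E545K) in serum-free MEM with 1 μg/mL insulin were treated 3 h with 10-point 1:3 dilutions in 0.3% DMSO. Lysates were read by SureFire AlphaLisa. IC50 was fitted by 4-parameter logistic to % inhibition relative to DMSO (max) and 1 μM GDC-0032 (min), duplicates averaged.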

PI3Kα H1047R = molecular target: T2, PI3Kα H1047R (Homo sapiens, UniProt P42336, H1047R); experiment: PI3Kα H1047R mutant in vitro cell based assay, MDA-MB-453 cells (AlphaLisa SureFire); details: MDA-MB-453 cell line, 0% FBS, 3 hours treatment
T2 construct: The MDA-MB-453 (ATCC-HTB-131) cell line (PI3Kα H1047R); host or cells: MDA-MB-453
T2 sequence (P42336 whole entry H1047R): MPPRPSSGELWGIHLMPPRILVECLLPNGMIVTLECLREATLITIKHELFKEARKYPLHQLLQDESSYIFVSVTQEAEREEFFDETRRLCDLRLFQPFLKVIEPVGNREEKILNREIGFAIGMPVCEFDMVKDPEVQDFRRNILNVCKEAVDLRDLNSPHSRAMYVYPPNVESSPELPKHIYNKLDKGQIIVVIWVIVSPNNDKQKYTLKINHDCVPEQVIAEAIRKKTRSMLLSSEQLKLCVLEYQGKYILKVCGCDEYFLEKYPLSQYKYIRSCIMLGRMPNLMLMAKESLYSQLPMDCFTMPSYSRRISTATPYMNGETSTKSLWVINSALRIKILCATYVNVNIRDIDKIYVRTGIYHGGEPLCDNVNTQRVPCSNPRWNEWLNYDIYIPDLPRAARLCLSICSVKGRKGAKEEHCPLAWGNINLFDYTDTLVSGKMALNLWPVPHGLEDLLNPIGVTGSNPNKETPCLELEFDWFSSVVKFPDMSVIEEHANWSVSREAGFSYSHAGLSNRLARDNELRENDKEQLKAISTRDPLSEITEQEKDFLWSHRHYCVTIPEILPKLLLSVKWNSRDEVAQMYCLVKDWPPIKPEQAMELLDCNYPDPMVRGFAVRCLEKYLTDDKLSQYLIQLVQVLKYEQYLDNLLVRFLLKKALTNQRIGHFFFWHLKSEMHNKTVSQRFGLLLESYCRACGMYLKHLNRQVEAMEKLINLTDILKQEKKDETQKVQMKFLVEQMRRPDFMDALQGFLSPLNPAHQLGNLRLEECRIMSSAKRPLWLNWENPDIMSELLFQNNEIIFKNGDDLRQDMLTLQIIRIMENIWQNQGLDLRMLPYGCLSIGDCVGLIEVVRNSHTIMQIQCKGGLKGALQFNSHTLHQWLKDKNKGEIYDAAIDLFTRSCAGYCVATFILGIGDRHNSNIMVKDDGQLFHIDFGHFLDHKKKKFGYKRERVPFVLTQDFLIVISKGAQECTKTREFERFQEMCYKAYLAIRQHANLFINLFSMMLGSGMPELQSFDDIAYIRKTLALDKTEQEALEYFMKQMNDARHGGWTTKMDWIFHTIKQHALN
T2 sequence (P27986 whole entry partner): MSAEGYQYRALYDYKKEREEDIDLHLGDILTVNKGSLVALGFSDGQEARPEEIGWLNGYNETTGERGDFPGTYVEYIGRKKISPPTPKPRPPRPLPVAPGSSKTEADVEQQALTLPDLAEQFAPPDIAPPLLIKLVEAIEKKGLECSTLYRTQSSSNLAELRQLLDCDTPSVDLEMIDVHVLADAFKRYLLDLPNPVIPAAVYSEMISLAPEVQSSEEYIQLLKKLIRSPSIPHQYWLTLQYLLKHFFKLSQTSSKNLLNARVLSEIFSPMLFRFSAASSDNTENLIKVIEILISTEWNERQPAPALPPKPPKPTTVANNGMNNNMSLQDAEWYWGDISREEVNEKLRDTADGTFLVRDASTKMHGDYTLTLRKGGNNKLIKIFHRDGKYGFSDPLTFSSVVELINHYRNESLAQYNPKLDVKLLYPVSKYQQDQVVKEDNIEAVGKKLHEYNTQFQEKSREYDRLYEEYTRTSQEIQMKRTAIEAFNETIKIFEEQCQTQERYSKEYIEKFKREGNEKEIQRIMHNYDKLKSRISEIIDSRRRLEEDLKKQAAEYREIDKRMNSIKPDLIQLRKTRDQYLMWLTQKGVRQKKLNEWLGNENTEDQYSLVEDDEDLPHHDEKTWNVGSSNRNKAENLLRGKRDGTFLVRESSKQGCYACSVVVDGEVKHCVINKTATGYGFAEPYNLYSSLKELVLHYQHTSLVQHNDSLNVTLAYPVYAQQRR
Procedure, shortened: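 MDA-MB-453 cells (endogenous PI3Kα H1047R) were treated for 3 h in serum-free MEM containing 1 μg/mL insulin, with 10-point 1:3 dilutions in 0.3% DMSO. Lysates were read by AlphaLisa SureFire. IC50 came from a 4-parameter logistic fit of duplicate % inhibition, normalized to DMSO (max) and 1 μM GDC-0032 (min).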

[2] = Metabolic stability and intrinsic clearance in human liver microsomes (MICS); assay type: in vitro ADME; details: pH 7.4
Procedure, shortened: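 Parent depletion by LC-MS/MS, run in duplicate, gave in vitro t1/2 from the slope of ln(% remaining) versus time, converted to CLint (μL/min/mg protein). Incubations: 1 μM compound, microsomes at 0.5 mg/mL, pH 7.4 phosphate, 37° C, ±1 mM NADPH, timepoints 0.5, 5, 15, 30, 60 min.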

PI3Kα E545K [3] = molecular target: T1, PI3Kα E545K; experiment: PI3Kα E545K mutant in vitro cell based assay, MDA-MB-361 cells; set-up: MDA-MB-361 (ATCC-HTB-27) cell line (PI3Kα E545K); host or cells: MDA-MB-361; details: MDA-MB-361 cell line, 0% FBS, no insulin, 3 hours treatment
Procedure, shortened: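 Compound exposure lasted 3 hours, in duplicate 10-point 1:3 dilutions at 0.3% DMSO final, on overnight-attached MDA-MB-361 cells carrying PI3Kα E545K in insulin-free, 0% FBS MEM. Lysates read by SureFire AlphaLISA. Relative IC50 from 4-parameter logistic fit versus DMSO and 1 μM GDC-0032 controls.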

T1 sequence (P42336 whole entry E545K): as the sequence (P42336 whole entry H1047R) above, with E545K, R1047H counted along it
T1 sequence (P27986 whole entry partner): as the sequence (P27986 whole entry partner) above

Row | IC50 (PI3Kα E545K [1]) [nM] | IC50 (PI3Kα H1047R) [nM] | microsomal CLint at 1 μM ([2]; human liver microsomes 0.5 mg/mL, 1 μM compound, read-out: intrinsic clearance in human MICS) [µL/min/mg] | IC50 (PI3Kα E545K [3]) [nM] | microsomal CLint at 1 μM ([2]; human, microsomes) [µL/min/mg] | SMILES
1 | < 500 | < 100 |  | < 500 |  | Cc1cc([C@@H](C)Oc2ccc(Cl)nc2C(N)=O)c2oc(-c3ccc4nn(C)cc4c3)cc(=O)c2c1 [Example 52A, 6-Chloro-3-[(1R)-1-[6-methyl-2-(2-methylindazol-5-yl)-4-oxo-chromen-8-yl]ethoxy]pyridine-2-carboxamide]
2 | < 500 | < 100 |  | < 500 |  | Cc1cc([C@@H](C)Oc2ccc(Cl)nc2C(N)=O)c2oc(-c3ccc4nc(C)sc4c3)c(C)c(=O)c2c1 [Example 68A, 6-Chloro-3-[(1R)-1-[3,6-dimethyl-2-(2-methyl-1,3-benzothiazol-6-yl)-4-oxo-chromen-8-yl]ethoxy]pyridine-2-carboxamide]
3 | < 500 | < 100 |  | < 500 |  | Cc1cc([C@@H](C)Oc2ccc(Cl)nc2S(N)(=O)=O)c2oc(C3CC3)c(C)c(=O)c2c1 [Example 74A, 6-Chloro-3-[(1R)-1-(2-cyclopropyl-3,6-dimethyl-4-oxo-chromen-8-yl)ethoxy]pyridine-2-sulfonamide]
4 | < 500 | < 100 |  |  | < 50 | Cc1cc([C@@H](C)Oc2ccc(Cl)nc2S(N)(=O)=O)c2oc(-c3cnc(C4CC4)nc3)c(C)c(=O)c2c1 [Example 83A, 6-Chloro-3-[(1R)-1-[2-(2-cyclopropylpyrimidin-5-yl)-3,6-dimethyl-4-oxo-chromen-8-yl]ethoxy]pyridine-2-sulfonamide]
5 | < 500 | < 100 |  | < 500 |  | Cc1cc([C@@H](C)Oc2ccc(Cl)nc2S(C)(=O)=O)c2oc(-c3cnn(C)c3)c(C)c(=O)c2c1 [Example 146A, 8-[(1R)-1-[(6-Chloro-2-methylsulfonyl-3-pyridyl)oxy]ethyl]-3,6-dimethyl-2-(1-methylpyrazol-4-yl)chromen-4-one]

Second part, the molecule before the results:

Row | SMILES | IC50 (PI3Kα E545K [1]) [nM] | IC50 (PI3Kα H1047R) [nM] | microsomal CLint at 1 μM ([2]; human liver microsomes 0.5 mg/mL, 1 μM compound, read-out: intrinsic clearance in human MICS) [µL/min/mg] | IC50 (PI3Kα E545K [3]) [nM] | microsomal CLint at 1 μM ([2]; human, microsomes) [µL/min/mg]
6 | Cc1cc([C@@H](C)Oc2ccc(Cl)nc2-c2noc(=O)[nH]2)c2oc(-c3ccccc3)c(C)c(=O)c2c1 [Example 2, 3-[6-Chloro-3-[(1R)-1-(3,6-dimethyl-4-oxo-2-phenyl-chromen-8-yl)ethoxy]-2-pyridyl]-4H-1,2,4-oxadiazol-5-one] | < 500 | < 100 | < 50 |  | 
7 | Cc1cc([C@@H](C)Oc2ccc(Cl)nc2C(N)=O)c2oc(-c3ccc4[nH]ncc4c3)c(C)c(=O)c2c1 [Example 22B, 6-Chloro-3-[(1R)-1-[2-(1H-indazol-5-yl)-3,6-dimethyl-4-oxo-chromen-8-yl]ethoxy]pyridine-2-carboxamide] | < 500 | < 100 |  | < 500 | 
8 | Cc1cc([C@@H](C)Oc2ccc(Cl)nc2S(C)(=O)=O)c2oc(-c3cnn(CCO)c3)c(C)c(=O)c2c1 [Example 29B, 8-[(1R)-1-[(6-Chloro-2-methylsulfonyl-3-pyridyl)oxy]ethyl]-2-[1-(2-hydroxyethyl)pyrazol-4-yl]-3,6-dimethyl-chromen-4-one] | < 500 | < 100 |  | < 500 | 
9 | Cc1cc([C@@H](C)Oc2ccc(Cl)nc2N)c2oc(-c3cnn(C)c3)c(C)c(=O)c2c1 [Example 30B, 8-[(1R)-1-[(2-Amino-6-chloro-3-pyridyl)oxy]ethyl]-3,6-dimethyl-2-(1-methylpyrazol-4-yl)chromen-4-one] | < 500 | < 100 |  | < 500 | 
10 | Cc1cc([C@@H](C)Oc2ccc(Cl)nc2S(N)(=O)=O)c2oc(-c3ccc(S(C)(=O)=O)cc3)c(C)c(=O)c2c1 [Example 31C, 6-Chloro-3-[(1R)-1-[3,6-dimethyl-2-(4-methylsulfonylphenyl)-4-oxo-chromen-8-yl]ethoxy]pyridine-2-sulfonamide] | < 500 | < 100 |  | < 500 | 
